Measurements published in ChEMBL document CHEMBL5360526, “Discovery of BET specific bromodomain inhibitors with a novel scaffold” (Bioorg Med Chem, 2022).

Legend:
[1] = molecular target: T1, Bromodomain-containing protein 4 (Homo sapiens, UniProt O60885); assay: Inhibition of N-terminal GST-tagged/C-terminal 6His-tagged BRD4 BD1 (47 to 170 residues) (unknown origin) expressed in Escherichia coli BL21 (DE3) using SGRGK(Ac)GGK(Ac)GLGK(Ac) GGAK(Ac)RHRK-biotinylated peptide as substrate incubated for 60 mins by alpha screen assay
[2] = molecular target: T1, Bromodomain-containing protein 4; assay: Inhibition of BRD4 BD2 (unknown origin) using SGRGK(Ac)GGK(Ac)GLGK(Ac) GGAK(Ac)RHRK-biotinylated peptide as substrate incubated for 60 mins by alpha screen assay

| IC50 [1] [µM] | IC50 [2] [µM] | Structure (SMILES) |
| --- | --- | --- |
| 5.24 | – | CN(C)S(=O)(=O)Nc1ccc(NCc2ccc(F)cc2)nc1Nc1ccc2[nH]nnc2c1 |
| 4.45 | 5.63 | CN(C)S(=O)(=O)Nc1ccc(NCC2CC2)nc1Nc1ccc2[nH]nnc2c1 |
| 3.23 | 3.02 | CCCS(=O)(=O)Nc1ccc(NC(C)C)nc1Nc1ccc2[nH]nnc2c1 |
| 0.8 | 0.72 | CC(C)Nc1ccc(NS(=O)(=O)c2ccc(F)cc2F)c(Nc2ccc3[nH]nnc3c2)n1 |
| 3.87 | 6.17 | CC(C)Nc1ccc([N+](=O)[O-])c(Nc2ccc3c(c2)nnn3S(=O)(=O)c2ccc(F)cc2)n1 |
| 7.64 | 11.3 | CN(C)S(=O)(=O)Nc1ccc(NCc2ccc(F)cc2F)nc1Nc1ccc2[nH]nnc2c1 |
| 4.6 | 5.82 | CN(C)S(=O)(=O)Nc1ccc(N2CCOCC2)nc1Nc1ccc2[nH]nnc2c1 |
| 4.22 | 10.3 | CC(C)Nc1ccc([N+](=O)[O-])c(Nc2ccc3c(c2)nnn3C)n1 |
| 0.78 | 1.04 | CC(C)Nc1ccc(NS(=O)(=O)c2c(F)cccc2F)c(Nc2ccc3[nH]nnc3c2)n1 |
| 1.83 | 1.8 | CC(C)Nc1ccc(NS(=O)(=O)C2CC2)c(Nc2ccc3[nH]nnc3c2)n1 |
| 7.7 | – | CN(C)S(=O)(=O)Nc1ccc(NCc2ccc3c(c2)OCO3)nc1Nc1ccc2[nH]nnc2c1 |
| 9.6 | 8.42 | CN(C)S(=O)(=O)Nc1ccc(NCC2CCCO2)nc1Nc1ccc2[nH]nnc2c1 (stereo unspecified) |
| 3.98 | 12.3 | CC(C)Nc1ccc(NC(=O)c2ccccc2)c(Nc2ccc3[nH]nnc3c2)n1 |
| 0.51 | 0.64 | CC(C)Nc1ccc(NS(=O)(=O)c2ccccc2)c(Nc2ccc3[nH]nnc3c2)n1 |
| 2.23 | – | CN(C)S(=O)(=O)Nc1ccc(NCc2ccccc2)nc1Nc1ccc2[nH]nnc2c1 |
| 7.91 | – | CN(C)S(=O)(=O)Nc1ccc(NCc2cccc3ccccc23)nc1Nc1ccc2[nH]nnc2c1 |
| 3.62 | – | CN(C)S(=O)(=O)Nc1ccc(NCCc2c[nH]c3ccccc23)nc1Nc1ccc2[nH]nnc2c1 |
| 1.69 | 2.05 | CC(C)Nc1ccc(NS(=O)(=O)N(C)C)c(Nc2ccc3[nH]nnc3c2)n1 |
| 0.83 | 0.8 | CC(C)Nc1ccc(NS(=O)(=O)c2cccnc2)c(Nc2ccc3[nH]nnc3c2)n1 |
| 6.22 | 23 | CN(C)S(=O)(=O)Nc1ccc(NCc2ccco2)nc1Nc1ccc2[nH]nnc2c1 |
| 5.59 | 5.11 | CN(C)S(=O)(=O)Nc1ccc(NCC(O)c2ccccc2)nc1Nc1ccc2[nH]nnc2c1 (stereo unspecified) |
| 3.86 | 4.47 | CCS(=O)(=O)Nc1ccc(NC(C)C)nc1Nc1ccc2[nH]nnc2c1 |
| 5.13 | 5.84 | CC(C)Nc1ccc([N+](=O)[O-])c(Nc2ccc3c(c2)nnn3C(=O)Nc2ccccc2)n1 |
